Laboratory results as given in patent US8338410B2, “Neuroprotective compounds and pharmaceutical compositions comprising them” (Biocodex, priority 2005, dated 2012).

System: mice subjected to histotoxic hypoxia induced by potassium cyanide
Assay: KCN hypoxia (i.p.) in mice (survival time)
Assay type: in vivo, CD1 male mice
Details: KCN 15 mg/kg i.p.
[1] = compound i.p. dose 3, first i.p. series
[2] = compound i.p. dose 10, first i.p. series
[3] = compound i.p. dose 30, first i.p. series (control 106 ± 9)
[4] = compound i.p. dose 30, second i.p. series (control 91 ± 4)
[5] = compound i.p. dose 50, second i.p. series
[6] = compound i.p. dose 75, second i.p. series

CCNC1=Nc2ccc(Cl)cc2C(C)(c2ccccc2)O1.Cl (centres unmarked) [etifoxine, 6-chloro-2-ethylamino-4-methyl-4-phenyl-4H-[3,1]benzoxazine hydrochloride]
Percentage variation [1]: +15%
Survival time in seconds (m ± sem) [1]: 122 ± 7 s
Percentage variation [2]: +7%
Survival time in seconds (m ± sem) [2]: 113 ± 5 s
Percentage variation [3]: +22%
Survival time in seconds (m ± sem) [3]: 129 ± 11 s
Percentage variation [4]: +19%
Survival time in seconds (m ± sem) [4]: 108 ± 4 s
Percentage variation [5]: +36%
Survival time in seconds (m ± sem) [5]: 124 ± 8 s
Percentage variation [6]: +46%
Survival time in seconds (m ± sem) [6]: 133 ± 6 s
Percentage variation (compound p.o. dose 100): −13%
Survival time in seconds (m ± sem) (compound p.o. dose 100): 94 ± 6 s
Percentage variation (compound p.o. dose 200): +14%
Survival time in seconds (m ± sem) (compound p.o. dose 200): 123 ± 12 s
Percentage variation (compound p.o. dose 300): −6%
Survival time in seconds (m ± sem) (compound p.o. dose 300): 102 ± 7 s
survival time (oral administration): did not significantly affect survival time
time to death (over 50 mg/kg i.p.): significantly increased the time to death
